From patent US20160002299A1, “NON-IMMUNOSUPPRESSIVE CYCLOSPORIN DERIVATIVES AS ANTIVIRAL AGENTS” (UCL BUSINESS PLC, priority 2013, published 2016)

Assays:
[1] = system: IFN-β; assay: IFN-β ELISA of supernatants of HIV-1 infected monocyte derived macrophages; format: cell-based, human; conditions: HIV-1 infected MDM, 10 μM Compound 1, supernatants, FIG. 3
Protocol: (§1) Primary monocyte-derived macrophages (MDM) were prepared from fresh blood from healthy volunteers. Peripheral blood mononuclear cells were isolated by Ficoll-Hypaque (Axis-Shield) density centrifugation. The isolated cells were washed with PBS and plated in RPMI (Invitrogen) supplemented with 10% heat-inactivated autologous human serum (HS) and 40 ng/ml macrophage colony stimulating factor (M-CSF) (R&D systems). The medium was then refreshed after 3 days (RPMI 1640 with 10% HS), removing any remaining non-adherent cells. After 6 days, media was replenished with
(§2) RPMI containing 5% type AB HS (Sigma-Aldrich-Aldrich). Replicate experiments were performed with cells derived from different donors.
(§3) Virus particles were produced by transient transfection of HEK293T cells. 3.5 μg of molecular clone DNA; NL4.3 Bal was transfected using Fugene 6 transfection reagent (Promega). Virus supernatants were harvested 48 hr, 72 hr and 96 hr post transfection. […] All virus preparations were quantified by reverse transcriptase (RT) enzyme linked immunosorbant assay (ELISA) (Roche). […]
(§4) Institute of Biological Standards AIDS Reagents Programme) and a secondary antibody linked to beta galactosidase. […] Cells were stained for Gag p24 at specific time points after infection and infected colonies counted. […]

[2] = system: HIV-1; assay: Single round HIV-1 infection of monocyte derived macrophages; format: cell-based; conditions: MDM at MOI of 0.1-1, in the presence of Compound 1, FIG. 4
Protocol: as §1, §2, §3, §4

[3] = system: HIV-1; assay: HIV-1 replication in monocyte derived macrophages (Gag p24 staining, infected cells counted); format: cell-based; conditions: primary MDM, NL4.3 Bal, MOI 0.2, 10 μM Compound 1 vs DMSO control, FIG. 2
Protocol: as §1, §2, §3, §4

C/C=C/C[C@@H](C)[C@@H](O)[C@H]1C(=O)N[C@@H](CC)C(=O)N(C)[C@H](Cc2ccc(C(=O)O)cc2)C(=O)N(C)[C@@H](CC(C)C)C(=O)N[C@@H](C(C)C)C(=O)N(C)[C@@H](CC(C)C)C(=O)N[C@@H](C)C(=O)N[C@H](C)C(=O)N(C)[C@@H](CC(C)C)C(=O)N(C)[C@@H](CC(C)C)C(=O)N(C)[C@@H](C(C)C)C(=O)N1C [Compound 1]
production of IFN-β [1]: elicited the production of IFN-β
infection lower after single round infection [2]: 5-7 fold
HIV-1 replication (number of infected cells) [3]: completely suppressed HIV-1 replication
